# Measured values published in patent US6849645B2, “Method of increased bioavailability of nutrients and pharmaceutical preparations with tetrahydropiperine and its analogues and derivatives” (priority 2000, dated 2005).
# Assay: Franz diffusion cell, in vitro transdermal permeation of Forskolin with or without tetrahydropiperine
# Format: in vitro ADME, rat
# Settings: for Increase in release (% of Forskolin): with THP vs control
# Description: In vitro permeation studies of Forskholin, a diterpenoid compound which has various therapeutic effects (Bronchodilation—used in Asthma, prevents platelet aggregation, anti hypertensive, anti glaucoma and anti-inflammatory) was carried out. Fabricated Franz diffusion cells of capacity 67 and 69 ml were used for the study. Freshly excised rat abdominal skin was used for the permeation studies.
# Solutions Used in the Study • a) 2.5% Forskolin in methanol. • b) 0.05% Tetrahydropiperine in 2.5% Forskolin in methanol. • c) 0.1% Tetrahydropiperine in 2.5% Forskolin in methanol. Procedure
# Freshly excised rat abdominal […] was mounted on the Franz diffusion Cell, the outer layer of the skin facing the donor compartment. The receptor fluid was maintained at 35° C. using a thermostatic magnetic stirrer.
# The study was conducted by replacing the medium in the receptor compartment with methanol instead of phosphate buffer. In both the receptor and donor compartment methanol was used as the medium in the permeation studies.
# (§1) In the donor compartment 2 ml methanol containing 50 mg of Forskolin and tetrahydropiperine (5% of Forskolin conc.) was taken. Receptor compartment consisted of 69 ml of methanol maintained at 35° C. Permeation study was carried out for a period of 1 hr. Samples were withdrawn at 15, 30 and 60 minutes intervals and the amount of Forskholin present was analyzed by HPLC.
# as §1, with “Forskholin” for “Forskolin and tetrahydropiperine (5% of Forskolin conc.)”, “65” for “69”, “hour.” for “hr.”
structure (smiles),measurement,setting,value
"O=C(CCCCc1ccc2c(c1)OCO2)N1CCCCC1 [Tetrahydropiperine, 1-[5-(1,3-Benzodioxol-5 yl)-1-oxo-pentanoyl]-Piperidine]",permeation of Forskolin,Tetrahydropiperine 5% of Forskolin concentration,enhanced
same,permeation of Forskolin,tetrahydropiperine 2% of Forskolin concentration,enhanced permeation was not observed
same,Increase in release (% of Forskolin),15 min,28.12%
same,Increase in release (% of Forskolin),30 min,39.25%
same,Increase in release (% of Forskolin),60 min,5.09%
